These results are taken from patent EP4458358A1, “PYRIDAZINE COMPOUNDS FOR ANTIFIBROTIC THERAPY” (Tietze Chemical Consulting UG, priority 2023, dated 2024).

What all share (format): cell-based
Assay [1] deals with MRCVI. As to the kind of experiment: ELISA of secreted pro-collagen I alpha 1 (Type I Collagen) from human lung fibroblast MRCVI. The method, then:
(§1) Compounds reconstitution and stock solution: Prior to treatment, DMSO was diluted in PMS until 0,1% DMSO was made. Each compound was solved in 0,1% DMSO (3: 2,5 mg/mL, 1: 2.5 mg/mL, 10: 1 mg/mL, 5: 1mg/mL, 7: 0,6 mg/mL, 16: 1 mg/mL 17: 1 mg/mL, 44: 0,6 mg/mL, 36: 1mg/mL.
(§2) Next the different stock solution with 150 µg and 250 µg of each compound per 1 ml culture solution was made by adding the 0,1% DMSO compound solution in the right amount to culture solution (DMEM with 10% FCS and 1% penicillin-streptomycin).
As cell line MRCV1 was used, which is an immortalized cell line originated from human lung fibroblast, bought in 2001.
The cell line was thawed and cultured in Dulbeco's modified Eagel's medium (DMEM, Gibcon, USA) supplemented with 10% fetal bovine serum (FBS, Gibco, Germany) and 1% penicillin-streptomycin (PS, Gibco, USA) at 37 °C in a humidified atmosphere with 5% CO2 until a sufficient number of cells were culture in T75 culture bottles. After reaching a confluence of 80% to 90%, the cells were separated using trypsin and counted. Next 100.000 cells were planted in each well of a 6 well plate in replicates, washed and the DMEM solution with 150 µg and 250 µg/ml substance/DMEM and DMEM with no substance as control was added.
(§3) After 48h and after 72h 100 µl supernatant of each well was taken, labelled and frozen at -20° degree Celsius. Prior to perform ELISA the medium was depending on the cell line diluted 1:50 or 1:100 with PBS, otherwise the concentration of collagen fibers was too high to be measured.
The medium containing the secretion of the human lung fibroblast MRCVI was collected after 48h and 72h treatment. Secretion of pro-collagen 1 was assessed with human pro-collagen I alpha 1 DuoSet ELISA (R&D systems, USA) To prepare the Elisa plate, Human pro-Collagen I a capture antibody was diluted in ELISA plate-coating buffer at 4µg/mL working concentration. 100 µl of diluted Capture antibody was added to 96-well microplates and incubated over night at room temperature. After three times washing with Wash Buffer, microplates were blocked by adding 300 µl of Reagent Diluent for 1 hour at room temperature. To proceed the ELISA Human pro-collagen I α1 Standards were diluted in Reagent Diluent (range between 31,3 pg/mL - 2000 pg/mL) and 100 µl of standards or conditioned mediums were added to designated wells. Microplates were incubated at room temperature for 2 hours. Human Pro-collagen I α1 Detection Antibody was prepared in Reagent Diluent at […] working concentration and 100 µl of diluted Detection Antibody was applied for 2 hours at room temperature after extensive washing. Then, working solution of Streptavidin-HRP with Reagent Diluent was prepared by diluting 1:40 and added into each well. After 20 minutes at room temperature incubation, microplates were washed and applied with 100 µl of Substrate Solution for 20 minutes followed by Stop Solution after washing. Finally, signals were measured at 450 nm absorbance by PHomo Microplate Reader (Autobio, China) The amount of pro-collagen 1 was quantified by extrapolating the signal into a linear range of a pro-collagen 1 standard curve. Screening compounds were typically tested at concentration of 150 and 250 µg/mL. The dose response data for each compound and the different cell lines were obtained by nonlinear regression analysis using Prism 9 software (GraphPad, La Jolla, USA).
For orientation: ELISA stands for enzyme-linked immunosorbent assay.

The test system of assay [2] is GM637. As to the kind of experiment: ELISA of secreted pro-collagen I alpha 1 (Type I Collagen) from human dermal fibroblasts GM637. The protocol:
as §1, §2
(§4) Three different cell lines were used for the experiments. GM637 is an immortalized cell line originated from human skin fibroblasts, bought in 2001, UKE1 and […] are cell lines originated from human dermal fibroblasts (dog ear) nurtured from patients, between 60 and 80 years old being completely anonymized at the clinic for dermatology, Rostock.
(§5) The cells lines were thawed and were cultured in Dulbeco's modified Eagel's medium (DMEM, Gibcon, USA) supplemented with 10% fetal bovine serum (FBS, Gibco, Germany) and 1% penicillin-streptomycin (PS, Gibco, USA) at 37 °C in a humidified atmosphere with 5% CO2 until a sufficient number of cells were culture in T75 culture bottles. After reaching a confluence of 80% to 90%, the cells were separated using trypsin and counted. Next 100.000 cells were planted in each well of a 6 well plate in replicates, washed and the DMEM solution with 150 µg and 250 µg/ml substance/DMEM and DMEM with no substance as control was added.
as §3
(§6) The media containing the secretion of the different human dermal fibroblasts GM637, UKE1, and HRO159N were collected after 48h and 72h treatment. Secretion of pro-collagen 1 was assessed with human pro-collagen I alpha 1 DuoSet ELISA (R&D systems, USA) To prepare the Elisa plate, Human pro-Collagen I a capture antibody was diluted in ELISA plate-coating buffer at 4µg/mL working concentration. 100 µl of diluted Capture antibody was added to 96-well microplates and incubated over night at room temperature. After three times washing with Wash Buffer, microplates were blocked by adding 300 µl of Reagent Diluent for 1 hour at room temperature. To proceed the ELISA Human pro-collagen I α1 Standards were diluted in Reagent Diluent (range between 31,3 pg/mL - 2000 pg/mL) and 100 µl of standards or conditioned mediums were added to designated wells. Microplates were incubated at room temperature for 2 hours. Human Pro-collagen I α1 Detection Antibody was prepared in Reagent Diluent at […] working concentration and 100 µl of diluted Detection Antibody was applied for 2 hours at room temperature after extensive washing. Then, working solution of Streptavidin-HRP with Reagent Diluent was prepared by diluting 1:40 and added into each well. After 20 minutes at room temperature incubation, microplates were washed and applied with 100 µl of Substrate Solution for 20 minutes followed by Stop Solution after washing. Finally, signals were measured at 450 nm absorbance by PHomo Microplate Reader (Autobio, China) The amount of pro-collagen 1 was quantified by extrapolating the signal into a linear range of a pro-collagen 1 standard curve. Screening compounds were typically tested at concentration of 150 and 250 µg/mL. The dose response data for each compound and the different cell lines were obtained by nonlinear regression analysis using Prism 9 software (GraphPad, La Jolla, USA).

For assay [3], the system named is UKE1. The assay can be described thus: ELISA of secreted pro-collagen I alpha 1 (Type I Collagen) from human dermal fibroblasts UKE1. The method, then: as §1, §2, §4, §5, §3, §6
Assay [4] concerns HRO159N. As to the kind of experiment: ELISA of secreted pro-collagen I alpha 1 (Type I Collagen) from human dermal fibroblasts HRO159N. The conditions noted are these: 250 µg. The protocol:
as §1, §2, §4, §5, §3, §6

In the case of `Cc1nnc2c3ccc(C(F)(F)F)cc3cnn12` [Compound 36, 3-Methyl-8-(trifluoromethyl)-[1,2,4]triazolo[3,4-a]phthalazine], the “collagen reduction percentage in comparison to the standard (100 %)” value (“collagen reduction percentage … (100 %)” for short) was found to be 64% in assay [1] (48h, 150 µg); 68% in assay [1] (48h, 250 µg); 36% in assay [1] (72 h, 150 µg); 22% in assay [1] (72 h, 250 µg).

For the compound `COc1nn2c(C)nnc2c2ccccc12` [Compound 3, 6-Methoxy-3-methyl-1,2,4-triazolo[3,4-a]phthalazine], the “collagen reduction percentage … (100 %)” value in assay [2] (48h, 150 µg) amounted to 89%; in assay [2] (48h, 250 µg), 50%; in assay [2] (72 h, 150 µg) it was 37%; in assay [2] (72 h, 250 µg), 32%; in assay [3] (48h, 150 µg), 96%; in assay [3] (48h, 250 µg) it was 77%. For the same compound, the “collagen reduction percentage … (100 %)” value amounted to 71% in assay [3] (72 h, 150 µg); 52% in assay [3] (72 h, 250 µg); 35% in assay [1] (48h, 150 µg); 11% in assay [1] (48h, 250 µg); 17% in assay [1] (72 h, 150 µg); 5% in assay [1] (72 h, 250 µg). In addition, the “collagen reduction percentage … (100 %)” value is 82% in assay [4] (48h) and 77% in assay [4] (72 h).

As to `c1ccc2c(c1)cnn1cnnc21` [Compound 10, 1,2,4-Triazolo[3,4-a]phthalazine], the “collagen reduction percentage … (100 %)” value in assay [1] (48h, 150 µg) was determined as 67%; in assay [1] (48h, 250 µg), 52%; in assay [1] (72 h, 150 µg), 48%; in assay [1] (72 h, 250 µg), 25%.

With `CC(C)Oc1nn2nnnc2c2c(Cl)cccc12` [Compound 44, 10-chloro-6-isopropoxytetrazolo[5,1-a]phthalazine], the “collagen reduction percentage … (100 %)” value in assay [2] (48h, 150 µg) is 122%; in assay [2] (48h, 250 µg), 89%; in assay [2] (72 h, 150 µg), 61%; in assay [2] (72 h, 250 µg), 65%; in assay [3] (48h, 150 µg) it was 122%; in assay [3] (48h, 250 µg), 89%. Also, the “collagen reduction percentage … (100 %)” value worked out at 61% in assay [3] (72 h, 150 µg); 65% in assay [3] (72 h, 250 µg); 72% in assay [4] (48h); 79% in assay [4] (72 h).

With `FC(F)(F)c1nnc2c3ccccc3cnn12` [Compound 5, 3-Trifluoromethyl-1,2,4-triazolo[3,4-a]phthalazine], the “collagen reduction percentage … (100 %)” value in assay [2] (48h, 150 µg) came to 114%; in assay [2] (48h, 250 µg) it was 89%; in assay [2] (72 h, 150 µg), 70%; in assay [2] (72 h, 250 µg), 105%; in assay [3] (48h, 150 µg), 107%; in assay [3] (48h, 250 µg), 99%. Moreover, the “collagen reduction percentage … (100 %)” value in assay [3] (72 h, 150 µg) turned out to be 94%; in assay [3] (72 h, 250 µg), 62%; in assay [1] (48h, 150 µg), 97%; in assay [1] (48h, 250 µg) it was 107%; in assay [1] (72 h, 150 µg), 56%; in assay [1] (72 h, 250 µg), 108%.
